Entries after “also recorded” stand apart in the source; their conditions may differ. Like-named read-outs stand apart in the source and are kept apart here. Bridge positions count the residues as written; N and C are the ends. Peptide text beside a SMILES is read from it.
Tests used:
[1] = target: T1, PCSK9Δhelix (Homo sapiens, UniProt Q8NBP7); experiment: Surface plasmon resonance biosensor-based affinity analysis (Example 4); format: binding
T1 construct: Human PCSK9 construct M1-Q692 with an engineered TEV site (residue deletion Y166, R167); made in house; host or cells: CHO

[2] = target: T2, PCSK9 (Homo sapiens, UniProt Q8NBP7); experiment: as above; format: binding; conditions: for Kd: Table 7, Target PCSK9, SPR at 20° C.
[3] = target: T3, PCSK9-R167A:R215A:R218A (PCSK9-AAA) (Homo sapiens, UniProt Q8NBP7, R167A/R215A/R218A); experiment: FXIa cleavage assay of the P′ helix of PCSK9-AAA; format: biochemical; conditions: immunoblot with anti-N-terminal peptide antibody
T3 construct: made in house; host or cells: CHO (transient)
Method: The PCSK9-AAA mutant (2.6 μM) was incubated with 50 nM FXIa (Haematologic Technologies) in Tris buffer (50 mM Tris, 150 mM NaCl, 4 mM CaCl2, pH 8.0) at room temperature for the indicated time periods. […] After SDS-PAGE of the samples, proteins were transferred to a nitrocellulose membrane using iBlot (Invitrogen). Proteins were then probed with a polyclonal rabbit antibody (1:3000) raised against the PCSK9 N-terminal peptide (^153[…]^168 (SEQ ID NO: 5)), followed with HRP-conjugated donkey anti-rabbit antibody (1:5000, GE Healthcare) using iBind (Invitrogen). PCSK9 signals were detected by ECL (GE Healthcare) and visualized by autoradiography.
Proteins were then probed with a polyclonal rabbit antibody (1:3000) raised against the PCSK9 N-terminal peptide (^153[…]^168 (SEQ ID NO: 5)), followed with HRP-conjugated donkey anti-rabbit antibody (1:5000, GE Healthcare) using iBind (Invitrogen). PCSK9 signals were detected by ECL (GE Healthcare) and visualized by autoradiography.

[4] = target: T1, PCSK9Δhelix; experiment: PCSK9Δhelix/Ab20 TR-FRET binding assay
[5] = system: His-EGF(A)-Fc; experiment: His-EGF(A)-Fc TR-FRET counterscreen
[6] = target: T2, PCSK9; experiment: PCSK9/EGF(A) TR-FRET binding assay; conditions: TR-FRET, read-out: PCSK9/EGF(A) IC50
[7] = target: T2, PCSK9; experiment: Phage competition ELISA; format: binding
Method: The sequences of selected clones were fused to the N-terminus of M13 major coat protein (p8) using Kunkel mutagenesis method (Kunkel et al., Methods Enzymol 154, 367-82). The resulting construct was transformed to E. Coli. XL1 blue, single colony was grown in 1 mL 2YT supplemented with 50 μg/mL carbenicillin, 10 μg/mL Tetracycline and M13 KO7 helper phage at 37° C. for 2 h, Kanamycin was added to final concentration of 25 μg/mL, growth was continued at 37° C. for 6 h. The culture was transferred to 30 mL 2YT supplemented with 50 μg/mL carbenicillin and 25 μg/mL kanamycin and grown at 37° C. overnight. The next day, the phage was harvested and purified using the standard protocol (Tonikian et al. Nat Protoc. 2007; 2(6):1368-86). The serially diluted phage solution was applied to the biotinylated PCSK9 and biotinylated PCSK9Δhelix that had been immobilized for 15 min on a 384-well MaxiSorp ImmunoPlate previously coated with 5 μg/mL NeutrAvidin and blocked with Block buffer. The plate was incubated at 4° C. for 1 h, washed 10 times with PT buffer (PBS, 0.05% Tween® 20). The bound phage was detected with anti-M13-HRP and the ELISA signal was read at OD450 nm. The background was ELISA signal that the phage directly bound to NeutrAvidin-coated plate. The data was plotted and the curve fitted with KaleidaGraph. Sub-saturating phage concentration that gave 80% of maximum binding signal was determined by the binding curve.
IC50 measurements were performed by mixing a fixed sub-saturating concentration of peptide-displaying phage with a serial dilution of synthetic peptides in PBT buffer. The mixture was added to plates coated with PCSK9 and PCSK9Δhelix and incubated for 1 h at room temperature. The plates were then washed 10 times with PBT buffer and the bound phage was detected by anti-M13-HRP. The data was plotted, curve fitted and IC50 derived by use of KaleidaGraph. All measurements were repeated 3 times independently.

[8] = target: T2, PCSK9; experiment: Cell surface LDLR assay with HepG2 cells; format: cell-based; conditions: HepG2 cells, 15 μg/mL PCSK9, 4 h, FACS
Method: HepG2 cells (ATCC; Manassas, Va.) were seeded into 48 well plates (Corning; Corning, N.Y.) at 1×10^5 cells per well in high glucose medium (DMEM, Gibco; Carlsbad, Calif.) containing 2 mM glutamine (Sigma), penicillin/streptomycin (Gibco) and 10% FBS (Sigma; St. Louis, Mo.) and incubated overnight. Then the medium was changed to DMEM containing 10% lipoprotein deficient serum (LPDS, Sigma). After 24 h, 15 μg/mL PCSK9 was incubated with peptides or Fab33 for 30 min, added to the cells and incubated at 37° C. for 4 h. Cells were rinsed with PBS and detached using Cell Dissociation Buffer in PBS (Gibco). After centrifugation, the resuspended cells were incubated with 1:20 anti LDLR antibody (Progen Biotechnik; Heidelberg, Germany) on ice for 10 min. The samples were then washed with PBS and incubated with 1:200 diluted goat anti mouse IgG (H+L) Alexa Fluor 488 (Invitrogen; Carlsbad, Calif.) on ice for 5 min. After two PBS washes, cells were re suspended in PBS containing 2.5 μg/mL of propidium iodide and analyzed on a dual laser flow cytometer (FACScan, Becton Dickinson; Franklin Lakes, N.J.). Relative fluorescence units (RFUs) were used to quantify LDLR expression levels on the HepG2 cell surface. Cell surface LDLR levels were expressed as percent of LDLR levels measured in the absence of PCSK9 (=control).
The effect of Compound 229 on PCSK9-mediated LDL receptor degradation was measured in a HepG2 cell assay as previously described (Zhang et al., J Biol Chem. 2014 Jan. 10; 289(2):942-55). Peptides at various concentrations were preincubated with 15 μg/mL PCSK9 in the presence of 0.5% DMSO for 30 min prior to the addition to cells. After a 4 h incubation, the cells were processed for measurements of LDL receptor surface levels by flow cytometry as described (Zhang et al., J Biol Chem. 2014 Jan. 10; 289(2):942-55) (FIG. 37).

[9] = target: T1, PCSK9Δhelix; experiment: SPR affinity measurements of peptide binding (Example 8); conditions: Table 10, binding to PCSK9Δhelix
Method: A Biacore™ T100 or Biacore™ 8K was adjusted to 20° C. The system was primed into assay buffer which consisted of 25 mM HEPES, pH 7.5, 0.15 M NaCl, 0.005% (v/v) Tween® 20, 0.2 mM tris(2-carboxyethyl)phosphine and optionally contained 0.1% (w/v) carboxymethylated dextran (average MW 10 kDa) and 0.2% (w/v) PEG (average MW 3450 Da) in order to reduce potential non-specific binding. Peptides were assayed by capturing fresh PCSK9 or PCSK9Δhelix after each binding regeneration cycle by exploiting a histidine tag and an NTA-sensor chip. The surface was charged with (His)8-tagged PCSK9 (approximately 800 RU captured). […] Compound 19 and Compound 20 were assayed in six serial two-fold dilutions from 100 nM to 3.1 nM. All peptides were analyzed in duplicate by serial injection (50 μL/min for 1 min) of peptide dilution from low to high concentration. The surface was then stripped of target by injecting 0.5 M EDTA, pH 8.0. This sequence was repeated for each peptide binding cycle and blank control cycles.
All SPR data was recorded in duplicate for five, or more serial dilutions, except for the two fusion peptides, which produced extremely low fitting error. Multicycle data (i.e. separate curves for each concentration) and single cycle data (i.e. single curve with serial injection of each concentration) were double referenced and fitted to an interaction model using BIAevaluation software. Peptide binding to PCSK9 produced deviations from a simple 1:1 binding interaction model that required application of a two-state model for determination of Kd while interactions with PCSK9Δhelix conformed well to simple 1:1 binding. Kinetic curvature was poorly defined for rapidly dissociating peptides and in these cases Kd was estimated from a steady-state dose response plot. Kd values were reported with associated standard error, a measure of confidence in that parameter value.

[10] = Table 7, Target PCSK9Δhelix, SPR at 20° C., read-out: Kd
[11] = Example 4, read-out: Kd for PCSK9Δhelix
[12] = TR-FRET, Example 7, read-out: PCSK9Δhelix/Ab20 IC50
[13] = TR-FRET, Table 8D, disulfide-cyclized extension peptides, read-out: PCSK9Δhelix/Ab20 IC50
[14] = TR-FRET counterscreen, Table 8D, * = some inhibition at highest concentrations, not sufficient to fit an IC50
[15] = Table 8D, disulfide-cyclized extension peptides

CC(=O)N[C@H](C(=O)N[C@H](C(=O)N[C@@H](Cc1ccccc1)C(=O)N[C@H](C(=O)N[C@@H](CO)C(=O)N[C@@H](Cc1c[nH]c2cc(F)ccc12)C(=O)N[C@@H](CCC(=O)O)C(=O)N[C@@H](CCC(=O)O)C(=O)N[C@@H](Cc1ccc(O)cc1)C(=O)N[C@@H](CC(C)C)C(=O)N[C@@H](CC(=O)O)C(=O)N[C@@H](Cc1c[nH]c2ccccc12)C(=O)N[C@H](C(N)=O)C(C)C)[C@@H](C)O)C(C)C)[C@@H](C)O [Compound 3, Ac-TVFTS(W6fl)EEYLDWV-NH2]
Kd [1, 10]: 2.58 µM
improvement of binding to PCSK9 relative to Pep2-8 ([2]; Table 7): about 3 fold
Kd [2]: 1.4 µM

CC[C@H](C)[C@@H]1NC(=O)[C@H](CCCNC(=N)N)NC(=O)[C@H](CCC(N)=O)NC(=O)[C@H](CC(C)C)NC(=O)[C@H](CC(N)=O)NC(=O)[C@H](Cc2c[nH]c3ccccc23)NC(=O)[C@@H]2CCCN2C(=O)[C@H]([C@@H](C)CC)NC(=O)[C@H](Cc2ccccc2)NC(=O)[C@@H](NC(=O)CNC(=O)[C@@H](N)CO)CSSC[C@@H](C(N)=O)NC(=O)[C@H](CC(C)C)NC(=O)[C@H](CC(C)C)NC(=O)CNC1=O [Compound 26] (H-SGCFIPWNLQRIGLLC-NH2; disulfide 3-16)
Kd [1, 10]: 0.803 µM
effect on FXIa-mediated cleavage of the P′ helix of PCSK9-AAA [3]: accelerated the cleavage reaction; also recorded: able to increase the FXIa-mediated cleavage; also recorded: strongly accelerated the cleavage
Kd [2]: 29 µM

CC[C@H](C)[C@@H]1NC(=O)[C@H](CCCNC(=N)N)NC(=O)[C@H](CCC(N)=O)NC(=O)[C@H](CC(C)C)NC(=O)[C@H](CC(N)=O)NC(=O)[C@H](Cc2c[nH]c3ccccc23)NC(=O)[C@@H]2CCCN2C(=O)[C@H](CC(C)C)NC(=O)[C@H](CCCNC(=N)N)NC(=O)[C@@H](NC(C)=O)CSSC[C@@H](C(N)=O)NC(=O)[C@@H]2CCCN2C(=O)[C@H](CC(C)C)NC(=O)CNC1=O [Compound 32] (Ac-CRLPWNLQRIGLPC-NH2; disulfide 1-14)
Kd [1, 11]: 0.21 µM
IC50 [4, 12]: ~1 µM
IC50 [4, 13]: 0.97 µM
Kd [2]: 1.3 µM
IC50 [5, 14]: > 50 µM
IC50 [6, 15]: > 50 µM

CC[C@H](C)[C@@H]1NC(=O)[C@H](CCCNC(=N)N)NC(=O)[C@H](C)NC(=O)[C@H](CC(C)C)NC(=O)[C@H](CC(N)=O)NC(=O)[C@H](Cc2c[nH]c3ccccc23)NC(=O)[C@@H]2CCCN2C(=O)[C@H](CC(C)C)NC(=O)[C@H](CCCNC(=N)N)NC(=O)[C@@H](NC(C)=O)CSSC[C@@H](C(N)=O)NC(=O)[C@@H]2CCCN2C(=O)[C@H](CC(C)C)NC(=O)CNC1=O [Compound 73] (Ac-CRLPWNLARIGLPC-NH2; disulfide 1-14)
Kd [1, 11]: 0.167 µM
IC50 [4, 13]: 0.915 µM
Kd [2]: 11 µM
IC50 [5, 14]: > 50 µM
IC50 [6, 15]: > 50 µM

CC(=O)N[C@H](C(=O)N[C@H](C(=O)N[C@@H](Cc1ccccc1)C(=O)N[C@H](C(=O)N[C@@H](CO)C(=O)N[C@@H](Cc1c[nH]c2ccccc12)C(=O)N[C@@H](CCC(=O)O)C(=O)N[C@@H](CCC(=O)O)C(=O)N[C@@H](Cc1ccc(O)cc1)C(=O)N[C@@H](CC(C)C)C(=O)N[C@@H](CC(=O)O)C(=O)N[C@@H](Cc1c[nH]c2ccccc12)C(=O)N[C@H](C(N)=O)C(C)C)[C@@H](C)O)C(C)C)[C@@H](C)O [Pep2-8, reference compound]
competition with binding of phage-displayed Pep2-8 to PCSK9 [7]: inhibited phage-displayed Pep2-8 binding
effect on FXIa-mediated cleavage of the P′ helix of PCSK9-AAA [3]: largely prevented cleavage
EC50 [8]: 5 to 10 µM
IC50 ([5]; counterscreen, Example 7): > 50 µM

Ac-PWNLVRIGLLR-NH2 [Compound 52]
Kd [1, 10]: 2.6 µM
IC50 [4, 12]: 10.2 µM
IC50 ([4]; Table 10, average ±S.D. of three experiments, read-out: Ab20 IC50): 15.9 ± 1.1 µM
Kd [9]: 2.1 µM
Kd [2]: 17.9 µM
IC50 ([5]; counterscreen, Example 7): > 50 µM
IC50 ([6]; Example 7): > 50 µM

From patent US11034725B2, “Compositions and methods for treating cardiovascular disease” (Genentech, Inc., priority 2016, dated 2021)
